Assay results: US11633402B2, “RET inhibitor” (CHUGAI SEIYAKU KABUSHIKI KAISHA, priority 2012, dated 2023)

Tests used:
[1] = tested on: cell lines expressing KIF5B-RET; conditions: J Clin Oncol 30, 2012, suppl; Abstract no: 7510; cited from earlier work
[2] = tested on: LC-2/ad-implanted mouse models; assay: Antitumor activity in xenograft mouse model harboring CCDC6-RET fusion gene; format: in vivo; conditions: SCID mice, oral once a day 20 mg/kg or 60 mg/kg for 14 days
Source text: LC-2/ad was subcutaneously implanted to SCID mice and randomized after tumor size reached 200 to 350 mm^3. The administration of the compound was started on the day of randomization. The vehicles used for dissolving the compound were 0.02 N HCl, 10% dimethyl sulfoxide. 10% Cremophor EL, 15% PEG400 and 15% HPCD (2-hydroxypropyl-β-cyclodextrin) (indicated by final concentration).

[3] = tested on: LC-2/ad cells (CCDC6-RET fusion gene); assay: Cell growth inhibitory activity against non-small cell lung cancer cell line LC-2/ad (CellTiter-Glo); format: cell-based; conditions: Homo sapiens, 120 h, read-out: cell growth inhibition IC50 value, LC-2/ad cells
Procedure: Cell growth inhibitory activity was evaluated using a non-small cell lung cancer cell line LC-tad (R1KEN, J Thorac Oncol. 2012 December, 7 (12), 1872-6) harboring CCDC6-RET fusion gene.
The LC-2/ad cells were seeded into a 96-well plate at a concentration of 2,000 cells/well in a medium of a 1:1 mixture of RPMI-1640 and Ham containing 15% FBS and 25 mM HEPES and cultured overnight at 37° C. in the presence of 5% CO2. […] Dimethyl sulfoxide was added as a negative control. After culture at 37° C. for 5 days in the presence of 5% CO2, a cell counting reagent CellTiter-Glo® Luminescent Cell Viability Assay was added thereto and stirred, followed by the measurement of luminescence intensity using a luminescence measurement apparatus Envision. The measurement value in a well supplemented with only a medium was defined as a cell viability of 0%, while the measurement value in a well supplemented with dimethyl sulfoxide was defined as a cell viability of 100%. […] The IC50 value was determined from the obtained values by the logistic regression method.

Ba/F3 KIF5B-RET cells = assay: Cell growth inhibitory activity against KIF5B-RET-expressing Ba/F3 cells (CellTiter-Glo); format: cell-based; conditions: Mus musculus, BaF3, 48 h; read-out: cell growth inhibition IC50 value, Ba/F3 KIF5B-RET cells
Procedure: An expression plasmid CS-GS104J-M67 (GeneCopoeia) containing KIF5B-RET variant 1 (gene in which a region from the N-terminus of KIF5B CDS to exon 15 was fused with a region from exon 12 of RET CDS to the C-terminus) (SEQ ID NO: 5) was transfected into mouse lymphocytes Ba/F3 (RIK FN Cell Bank) by electroporation. After transfection, the cells were cultured overnight in an RPMI-1640 medium (Sigma-Aldrich) containing 10% FBS (Bovogen Biologicals) and 1 ng/mL recombinant mouse IL-3 (R&D systems). Then, the culture supernatant was replaced with an RPMl-1640 medium containing 10% LBS. The cells were seeded into a 96-well plate by the limiting dilution method. Approximately 2 weeks later, the expression of phosphorylated RET in cells grown in the absence of IL-3 was detected by Western blotting. […]
The Ba/F3 KIF5B-RET cells were seeded into a 96-well plate at a concentration of 2,500 cells/well in an RPMI-1640 medium containing 10% FBS. […] After culture at 37° C. for 2 days in the presence of 5% CO2, a cell counting reagent CellTiter-Glo® Luminescent Cell Viability Assay (Pronged Corporation) was added thereto and stirred, followed by the measurement of luminescence intensity using a luminescence measurement apparatus Envision (PerkinElmer). […] The IC50 value was determined from the obtained values by the logistic regression method.

TT cells (RET C634W) = assay: Cell growth inhibitory activity against thyroid medullary cancer cell line TT (CellTiter-Glo); format: cell-based; conditions: Homo sapiens, 120 h, read-out: cell growth inhibition IC50 value, TT cells
Procedure: Cell growth inhibitory activity was evaluated using a thyroid medullary cancer cell line TT (American Type Culture Collection) with a RET kinase active mutation (C634W).
The TT cells were seeded into a 96-well plate at a concentration of 5,000 cells/well in F-12K Nutrient Mixture (Life Technologies Corporation) containing 10% FBS and cultured overnight at 37° C. in the presence of 5% CO2. […] Dimethyl sulfoxide was added as a negative control. After culture at 37° C. for 5 days in the presence of 5% CO2. a cell counting reagent CellTiter-Glo® Luminescent Cell Viability Assay was added thereto and stirred, followed by the measurement of luminescence intensity using a luminescence measurement apparatus Envision. The measurement value in a well supplemented with only a medium was defined as a cell viability of 0%, while the measurement value in a well supplemented with dimethyl sulfoxide was defined as a survival rate of 100%. […] The IC50 value was determined from the obtained values by the logistic regression method.

[4] = tested on: KIF5B-RET-expressing cells; conditions: Nature Medicine 2012, 18, p. 378-381; cited from earlier work
RET = RET (Homo sapiens, UniProt P07949); conditions: high concentration (1,000 nM); Cancer Cell 19(5) 679-690, 2011; cited from earlier work
Sequence of RET (P07949 29-1114): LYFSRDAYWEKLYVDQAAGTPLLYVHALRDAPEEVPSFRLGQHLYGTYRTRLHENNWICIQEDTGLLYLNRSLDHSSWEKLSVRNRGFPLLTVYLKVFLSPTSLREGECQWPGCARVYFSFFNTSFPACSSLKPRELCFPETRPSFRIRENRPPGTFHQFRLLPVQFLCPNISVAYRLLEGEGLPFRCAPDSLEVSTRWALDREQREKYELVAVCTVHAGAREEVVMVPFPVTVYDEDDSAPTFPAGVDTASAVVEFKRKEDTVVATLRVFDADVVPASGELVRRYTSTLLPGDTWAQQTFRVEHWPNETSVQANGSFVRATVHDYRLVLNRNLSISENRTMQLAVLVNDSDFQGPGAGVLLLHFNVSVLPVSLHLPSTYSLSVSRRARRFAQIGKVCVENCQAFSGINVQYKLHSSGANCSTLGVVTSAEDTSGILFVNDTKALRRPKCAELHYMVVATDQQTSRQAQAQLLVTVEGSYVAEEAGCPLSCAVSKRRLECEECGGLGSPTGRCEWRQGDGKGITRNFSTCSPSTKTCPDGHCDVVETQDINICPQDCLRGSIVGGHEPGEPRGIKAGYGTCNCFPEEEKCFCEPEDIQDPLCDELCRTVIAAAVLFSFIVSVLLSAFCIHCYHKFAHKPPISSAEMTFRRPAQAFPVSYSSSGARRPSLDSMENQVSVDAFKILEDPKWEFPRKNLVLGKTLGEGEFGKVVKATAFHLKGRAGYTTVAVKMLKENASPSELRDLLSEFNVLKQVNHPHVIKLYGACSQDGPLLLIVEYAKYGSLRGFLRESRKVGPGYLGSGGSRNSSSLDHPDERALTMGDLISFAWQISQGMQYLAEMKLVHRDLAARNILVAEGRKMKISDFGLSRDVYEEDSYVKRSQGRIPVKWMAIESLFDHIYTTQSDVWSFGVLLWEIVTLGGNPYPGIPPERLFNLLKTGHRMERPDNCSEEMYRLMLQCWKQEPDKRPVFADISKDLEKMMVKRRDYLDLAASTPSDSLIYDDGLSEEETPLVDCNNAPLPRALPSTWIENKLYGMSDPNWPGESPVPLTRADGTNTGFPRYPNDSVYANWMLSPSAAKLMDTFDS

In the case of `COc1cc2nccc(Oc3ccc(NC(=O)C4(C(=O)Nc5ccc(F)cc5)CC4)cc3)c2cc1OC` [XL184], the “cell growth inhibitory effect against cell lines expressing KIF5B-RET” value [1] is given as “cell growth inhibitory effect”.

In the case of `CCc1cc2c(cc1N1CCC(N3CCOCC3)CC1)C(C)(C)c1[nH]c3cc(C#N)ccc3c1C2=O` [compound 1, 9-ethyl-6,6-dimethyl-8-(4-morpholin-4-yl-piperidin-1-yl)-11-oxo-6,11-dihydro-5H-benzo[b]carbazole-3-carbonitrile], the “antitumor activity (tumor growth)” value ([2]; LC-2/ad subcutaneous) is reported as “dose-dependent tumor growth inhibitory effect and tumor regression”, the body weight loss [2] is reported as “significant body weight loss of a mouse was not observed” and the IC50 [3] is reported as 190 nM. For the same molecule, the IC50 (Ba/F3 KIF5B-RET cells) was 86 nM and the IC50 (TT cells (RET C634W)) was 190 nM.

In the case of `C[C@@H](Oc1cc(-c2cnn(C3CCNCC3)c2)cnc1N)c1c(Cl)ccc(F)c1Cl` [crizotinih], the “cell growth inhibitory activity against KIF5B-RET-expressing cells” value [4] is given as “no cell growth inhibitory activity”.

For `CCc1cc2c(cc1N1CCC(N3CCOCC3)CC1)C(C)(C)c1[nH]c3cc(C#N)ccc3c1C2=O` [drawing 3], the “kinase inhibition in Ambit Kinase Screening test” value (RET) is listed as “inhibits many kinases including RET”.

In the case of `CNC(=O)c1cc(Oc2ccc(NC(=O)Nc3ccc(Cl)c(C(F)(F)F)c3)cc2)ccn1` [sorafenih], the “cell growth inhibitory effect against cell lines expressing KIF5B-RET” value [1] is given as “cell growth inhibitory effect”.
